Source: patent US20100305143A1, “PYRROLOPYRIMIDINE COMPOUNDS” (VERNALIS (R & D) LTD., priority 2007, published 2010)
pIC50: −log10 of the molar value.

Target: T1, human adenosine A2B receptors (Homo sapiens, UniProt P29275)
T1 construct: expressed in transfected cells
T1 sequence (P29275 1-332): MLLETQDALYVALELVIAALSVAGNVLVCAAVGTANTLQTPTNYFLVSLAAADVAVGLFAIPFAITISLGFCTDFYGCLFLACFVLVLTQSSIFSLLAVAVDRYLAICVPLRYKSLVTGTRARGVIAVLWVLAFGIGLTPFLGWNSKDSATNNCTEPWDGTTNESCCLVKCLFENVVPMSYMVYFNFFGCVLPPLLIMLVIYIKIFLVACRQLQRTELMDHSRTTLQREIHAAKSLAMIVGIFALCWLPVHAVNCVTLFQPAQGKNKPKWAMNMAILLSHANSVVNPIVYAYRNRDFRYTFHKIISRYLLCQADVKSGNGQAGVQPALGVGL
Assay: FLIPR calcium flux assay in cells expressing human adenosine A2B receptors
Assay type: cell-based
Conditions: expressed human adenosine A2B receptors in mammalian cell lines, from dose response curves, read-out: Activity (IC50 activity range)
Method: The use of a Fluorometric Imaging Plate Reader (FLIPR) to measure calcium flux in Adenosine-receptor expressing cells is a well-established technique. In this assay calcium flux is triggered by receptor activation and measured through the fluorescence of an incorporated calcium-sensitive dye. The potencies shown were determined using expressed human adenosine A2B receptors in mammalian cell lines. Selectivity values were obtained by using mammalian cell lines expressing the human adenosine A1, A2A and A3 receptors. Compound potency was determined from dose response curves and are reported as IC50 values.

| pIC50 | Compound |
| --- | --- |
| < 6.30 | CCCCCn1ccc2c(C(=O)c3cccs3)nc(NCc3cccnc3)nc21 [Example 19, {7-Pentyl-2-[(pyridin-3-ylmethyl)-amino]-7H-pyrrolo[2,3-d]pyrimidin-4-yl}-thiophen-2-yl-methanone] |
| > 6.30 | Cc1ccc(C(=O)c2nc(NCc3ccccn3)nc3c2ccn3C)s1 [Example 9, {7-Methyl-2-[(pyridin-2-ylmethyl)-amino]-7H-pyrrolo[2,3-d]pyrimidin-4-yl}-(5-methyl-thiophen-2-yl)-methanone] |
| < 6.30 | O=C(c1cccs1)c1nc(NCc2cccnc2)nc2c1ccn2Cc1ccccc1 [Example 18, {7-Benzyl-2-[(pyridin-3-ylmethyl)-amino]-7H-pyrrolo[2,3-d]pyrimidin-4-yl}-thiophen-2-yl-methanone] |
| < 6.30 | Cn1c(Cl)cc2c(C(=O)c3cccs3)nc(NCc3cccnc3)nc21 [Example 40, {6-Chloro-7-methyl-2-[(pyridin-3-ylmethyl)-amino]-7H-pyrrolo[2,3-d]pyrimidin-4-yl}-thiophen-2-yl-methanone] |
| < 6.30 | O=C(c1cccs1)c1nc(NCc2ccccn2)nc2[nH]ccc12 [Example 14, {2-[(Pyridin-2-ylmethyl)-amino]-7H-pyrrolo[2,3-d]pyrimidin-4-yl}-thiophen-2-yl-methanone] |
| < 6.30 | O=C(c1cccs1)c1nc(NCc2cccnc2)nc2c1ccn2CC1CC1 [Example 20, {7-Cyclopropylmethyl-2-[(pyridin-3-ylmethyl)-amino]-7H-pyrrolo[2,3-d]pyrimidin-4-yl}-thiophen-2-yl-methanone] |
| < 6.30 | Cn1cc(-c2ccc(S(C)(=O)=O)cc2)c2c(C(=O)c3cccs3)nc(NCc3cccnc3)nc21 [Example 27, {5-(4-Methanesulfonyl-phenyl)-7-methyl-2-[(pyridin-3-ylmethyl)-amino]-7H-pyrrolo[2,3-d]pyrimidin-4-yl}-thiophen-2-yl-methanone] |
| > 6.30 | Cn1c(Cl)cc2c(C(=O)c3cccs3)nc(Cl)nc21 [Example 39, (2,6-Dichloro-7-methyl-7H-pyrrolo[2,3-d]pyrimidin-4-yl)-thiophen-2-yl-methanone] |
| < 6.30 | COc1ccccc1-c1cn(C)c2nc(NCc3cccnc3)nc(C(=O)c3cccs3)c12 [Example 29, {5-(2-Methoxy-phenyl)-7-methyl-2-[(pyridin-3-ylmethyl)-amino]-7H-pyrrolo[2,3-d]pyrimidin-4-yl}-thiophen-2-yl-methanone] |

The next lines start with the compound.

| Compound | pIC50 |
| --- | --- |
| CC(Nc1nc(C(=O)c2cccs2)c2ccn(C)c2n1)c1cccnc1 (centres unmarked) [Example 7, [7-Methyl-2-(1-pyridin-3-yl-ethylamino)-7H-pyrrolo[2,3-d]pyrimidin-4-yl]-thiophen-2-yl-methanone] | > 6.30 |
| Cc1ccc(C(=O)c2nc(NCc3ccncc3)nc3c2ccn3C)s1 [Example 10, {7-Methyl-2-[(pyridin-4-ylmethyl)-amino]-7H-pyrrolo[2,3-d]pyrimidin-4-yl}-(5-methyl-thiophen-2-yl)-methanone] | < 6.30 |
| Cc1ccc(C(=O)c2nc(NCc3cccnc3)nc3c2ccn3C)s1 [Example 8, {7-Methyl-2-[(pyridin-3-ylmethyl)-amino]-7H-pyrrolo[2,3-d]pyrimidin-4-yl}-(5-methyl-thiophen-2-yl)-methanone] | > 6.30 |
| Cn1cc(-c2ccccc2)c2c(C(=O)c3cccs3)nc(NCc3cccnc3)nc21 [Example 26, {7-Methyl-5-phenyl-2-[(pyridin-3-ylmethyl)-amino]-7H-pyrrolo[2,3-d]pyrimidin-4-yl}-thiophen-2-yl-methanone] | < 6.30 |
| O=C(c1cccs1)c1nc(Cl)nc2[nH]ccc12 [Example 13, (2-Chloro-7H-pyrrolo[2,3-d]pyrimidin-4-yl)-thiophen-2-yl-methanone] | < 6.30 |
| O=C(c1cccs1)c1nc(Cl)nc2c1ccn2Cc1ccccc1 [Example 17, (7-Benzyl-2-chloro-7H-pyrrolo[2,3-d]pyrimidin-4-yl)-thiophen-2-yl-methanone] | < 6.30 |
| COc1ccc(-c2cn(C)c3nc(NCc4cccnc4)nc(C(=O)c4cccs4)c23)cc1 [Example 28, {5-(4-Methoxy-phenyl)-7-methyl-2-[(pyridin-3-ylmethyl)-amino]-7H-pyrrolo[2,3-d]pyrimidin-4-yl}-thiophen-2-yl-methanone] | < 6.30 |
| Cn1ccc2c(C(=O)c3cccs3)nc(NCc3cccnc3)nc21 [Example 6, {7-Methyl-2-[(pyridin-3-ylmethyl)-amino]-7H-pyrrolo[2,3d]pyrimidin-4-yl}-thiophen-2-yl-methanone] | > 6.30 |
| Cn1c(Br)cc2c(C(=O)c3cccs3)nc(Cl)nc21 [Example 35, (6-Bromo-2-chloro-7-methyl-7H-pyrrolo[2,3-d]pyrimidin-4-yl)-thiophen-2-yl-methanone] | > 6.30 |
| Cn1cc(Br)c2c(C(=O)c3cccs3)nc(NCc3cccnc3)nc21 [Example 25, {5-Bromo-7-methyl-2-[(pyridin-3-ylmethyl)-amino]-7H-pyrrolo[2,3-d]pyrimidin-4-yl}-thiophen-2-yl-methanone] | < 6.30 |
| CCCn1ccc2c(C(=O)c3cccs3)nc(NCc3cccnc3)nc21 [Example 21, {7-Propyl-2-[(pyridin-3-ylmethyl)-amino]-7H-pyrrolo[2,3-d]pyrimidin-4-yl}-thiophen-2-yl-methanone] | < 6.30 |
